Tests used:
Cavia porcellus [1] = assay: Ex vivo inhibition of collagen-induced platelet aggregation in guinea pig after p.o. administration.
Monkey [2] = assay: Ex vivo inhibition of collagen-induced platelet aggregation in cynomolgus monkey after p.o. administration.; assay type: functional; conditions: Cercopithecidae, in Macaca fascicularis, po
Monkey [3] = assay: Ex vivo inhibition of collagen-induced platelet aggregation in cynomolgus monkey after i.v. administration.; assay type: functional; conditions: Cercopithecidae, in Macaca fascicularis, iv
Cavia porcellus [4] = assay: Ex vivo inhibition of collagen-induced platelet aggregation in guinea pig after i.v. administration.; assay type: functional; conditions: iv

Row | SMILES | ED50 (Cavia porcellus [1]) | ED50 (Monkey [2]) | ED50 (Monkey [3]) | ED50 (Cavia porcellus [4])
1 | CCOC(=O)CCN1CCN(C[C@@H]2CN(c3ccc(C(=N)NC(=O)c4ccccc4)cc3)C(=O)O2)CC1 | > 1 mg/kg |  |  | 
2 | N/C(=N/C(=O)c1ccccc1)c1ccc(N2C[C@@H](CN3CCN(CC(=O)O)CC3)OC2=O)cc1 | > 10 mg/kg |  |  | 
3 | CCOC(=O)CN1CCN(C[C@@H]2CN(c3ccc(C(=N)NC(=O)OCc4ccccc4)cc3)C(=O)O2)CC1 | < 1 mg/kg | > 1 mg/kg |  | 
4 | CCOC(=O)CN1CCN(C[C@@H]2CN(c3ccc(C(=N)NC(=O)c4ccc(OC)cc4)cc3)C(=O)O2)CC1 | < 1 mg/kg | > 1 mg/kg |  | 
5 | CCOC(=O)CN1CCN(CC2CN(c3ccc(C(=N)NC(=O)OC)cc3)C(=O)O2)CC1 (configuration not stated) | 0.4 mg/kg |  |  | 0.4 mg/kg
6 | CCOC(=O)CN1CCN(C[C@H]2CN(c3ccc(C(=N)NC(=O)c4ccccc4)cc3)C(=O)O2)CC1 | > 1 mg/kg |  |  | 
7 | COC(=O)CN1CCN(C[C@@H]2CN(c3ccc(C(=N)NC(=O)OC)cc3)C(=O)O2)CC1 | 0.1 mg/kg | 0.8 mg/kg |  | 
8 | CCOC(=O)CN1CCN(CC2CN(c3ccc(C(=N)NC(=O)c4cccnc4)cc3)C(=O)O2)CC1 (configuration not stated) |  |  |  | 1 mg/kg
9 | CC(C)(C)OC(=O)CCN1CCN(CC2CN(c3ccc(C(=N)NC(=O)c4ccccc4)cc3)C(=O)O2)CC1 (configuration not stated) | > 10 mg/kg |  |  | 
10 | CCOC(=O)CN1CCN(C[C@@H]2CN(c3ccc(C(=N)NC(=O)C(C)C)cc3)C(=O)O2)CC1 | 0.4 mg/kg | 1.3 mg/kg |  | 
11 | COC(=O)/N=C(/N)c1ccc(N2CC(CN3CCN(CC(=O)OC(C)(C)C)CC3)OC2=O)cc1 (configuration not stated) | > 1 mg/kg |  |  | 
12 | CCOC(=O)CN1CCN(CC2CN(c3ccc(C(=N)NC(=O)Oc4ccccc4)cc3)C(=O)O2)CC1 (configuration not stated) | 0.2 mg/kg |  |  | 
13 | CC(C)(C)OC(=O)CN1CCN(C[C@@H]2CN(c3ccc(C(=N)N)cc3)C(=O)O2)CC1 |  |  |  | 1 mg/kg
14 | CCOC(=O)CC1(O)CCN(CC2CN(c3ccc(C(=N)NC(=O)c4ccccc4)cc3)C(=O)O2)CC1 (configuration not stated) | 3 mg/kg |  |  | 
15 | CCOC(=O)CN1CCN(C[C@@H]2CN(c3ccc(C(=N)NC(=O)c4cccc(C(F)(F)F)c4)cc3)C(=O)O2)CC1 | < 1 mg/kg | > 1 mg/kg |  | 
16 | CCOC(=O)CN1CCN(C[C@@H]2CN(c3ccc(C(=N)NC(=O)OCC)cc3)C(=O)O2)CC1 | 0.17 mg/kg | 0.7 mg/kg |  | 
17 | CC(=O)O/N=C(/N)c1ccc(N2C[C@@H](CN3CCN(CC(=O)O)CC3)OC2=O)cc1 | > 10 mg/kg |  |  | 
18 | CCOC(=O)C1CCN(CC2CN(c3ccc(C(=N)NC(=O)c4ccccc4)cc3)C(=O)O2)CC1 (configuration not stated) | 10 mg/kg |  |  | 

More lines, main results first:

Row | ED50 (Cavia porcellus [1]) | SMILES | ED50 (Monkey [2]) | ED50 (Monkey [3]) | ED50 (Cavia porcellus [4])
19 | > 10 mg/kg | CCOC(=O)CCN1CCN(C[C@H]2CN(c3ccc(C(=N)NC(=O)c4ccccc4)cc3)C(=O)O2)CC1 |  |  | 
20 | 0.2 mg/kg | CCOC(=O)CN1CCN(C[C@@H]2CN(c3ccc(C(=N)NC(=O)OC)cc3)C(=O)O2)CC1 [GANTOFIBAN] | 0.07 mg/kg | 0.5 mg/kg | 
21 | > 1 mg/kg | CCOC(=O)CN1CCN(C[C@@H]2CN(c3ccc(C(=N)N)cc3)C(=O)O2)CC1 |  |  | 0.08 mg/kg
22 | 1 mg/kg | CC(C)(C)OC(=O)CN1CCN(C[C@@H]2CN(c3ccc(C(=N)NC(=O)c4ccccc4)cc3)C(=O)O2)CC1 | > 1 mg/kg |  | 0.4 mg/kg
23 | 3 mg/kg | CCOC(=O)CC1CCN(CC2CN(c3ccc(C(=N)NC(=O)c4ccccc4)cc3)C(=O)O2)CC1 (configuration not stated) |  |  | 
24 | > 10 mg/kg | CCOC(=O)CCN1CCN(CC2CN(c3ccc(C(=N)NC(=O)OC)cc3)C(=O)O2)CC1 (configuration not stated) |  |  | 
25 | < 1 mg/kg | CCOC(=O)CN1CCN(CC2CN(c3ccc(C(=N)NC(=O)c4ccco4)cc3)C(=O)O2)CC1 (configuration not stated) | > 1 mg/kg |  | 
26 | 0.32 mg/kg | CCOC(=O)CN1CCN(C[C@@H]2CN(c3ccc(C(=N)NC(=O)c4ccccc4)cc3)C(=O)O2)CC1 | 1.3 mg/kg | 0.13 mg/kg | 0.09 mg/kg
